Test results as given in publication PMC3136361 (Journal of medicinal chemistry, 2011).
Where “and” joins values, the source holds several entries; their conditions need not be identical. Equal entries are not always repeated.

Assays:
[1] = Intrinsic clearance in mouse hepatocytes; type: in vitro ADME
SREBP = test: SREBP-responsive; conditions: luciferase reporter assay, CHO-K1 cells
[2] = Parallel artificial membrane permeability assay; conditions: for passive permeability through artificial membrane (in words): PAMPA
[3] = tested on: SREBP-responsive genes in DU145 cells; test: Real-time RT-PCR of SREBP-responsive genes in DU145 cells; type: cell-based, human
ob/ob mice = conditions: male ob/ob mice, oral in chow, 8 wk

Q: With CCCc1cc(-c2nc(-c3ccc(C)cc3)cs2)ccn1 [Compound 1, fatostatin] as the molecule, how does the “metabolic stability (in words)” value [1] read?
A: low metabolic stability

Q: With CCCc1cc(-c2nc(-c3ccccc3)cs2)ccn1 [Compound 5a] as the molecule, how does the “decrease in potency relative to fatostatin” value (SREBP) read?
A: fourfold

Q: Which “decrease in potency relative to fatostatin” value (SREBP) does the source give for Cc1ccc(-c2csc(-c3ccccc3)n2)cc1 [Compound 12] here?
A: 3.3 fold

Q: For CCCc1cc(-c2ccc(-c3ccc(C)cc3)cc2)ccn1 [Compound 15], which “activity in reporter assay (in words)” value (SREBP) is on record?
A: large loss of activity

Q: Which “metabolic stability (in words)” value [1] does the source give for CCCc1cc(-c2nc(-c3ccc(NC(C)C)cc3)cs2)ccn1 [Compound 20, N-Isopropyl-4-(2-(2-propylpyridin-4-yl)thiazol-4-yl)aniline] here?
A: low metabolic stability

Q: What about the “passive permeability through artificial membrane (in words)” value [2] of the same molecule?
A: moderate

Q: Which “effect on transcription of three control genes unrelated to SREBP” value ([3]; RPL13A, B2M, GAPDH) does the source give for CCCc1cc(-c2nc(-c3ccc(NS(C)(=O)=O)cc3)cs2)ccn1 [Compound 24, N-(4-(2-(2-Propylpyridin-4-yl)thiazol-4-yl)phenyl)methanesulfonamide] here?
A: no significant effect

Q: And the “downregulation of transcription of nine SREBP-responsive genes” value ([3]; real-time RT-PCR, all nine genes)?
A: at least 25%

Q: And the “metabolic stability (in words)” value [1]?
A: moderately stable

Q: What about the “less weight than control mice” value (ob/ob mice) of the same molecule?
A: 8–9%

Q: And the “passive permeability through artificial membrane (in words)” value [2]?
A: high

Q: Which “Reference PAMPA Papp” value ([2]; Warfarin 10 μM, control for membrane integrity, run alongside each compound) does the source give for CC(=O)CC(c1ccccc1)c1c(O)c2ccccc2oc1=O (stereo not drawn) [Warfarin, reference compound] here?
A: 5.34 10^−6 cm/sec and 5.58 10^−6 cm/sec
